Reference: PMC9318816, “Differential Effects of a Novel Opioid Ligand UTA1003 on Antinociceptive Tolerance and Motor Behaviour” (Pharmaceuticals, 2022)
Where two headings read alike, the source gives them in different places. Non-standard residues stand in square brackets, D forms with d. Residues, ends and D or L forms follow the SMILES beside them. *: point of attachment. Dmt = Cc1cc(O)cc(C)c1C[C@H](N)C(=O)O; Pip = O=C(O)[C@@H]1CCCCN1; NHBn = c1ccc(CN*)cc1

Columns and labels:
human MOP receptor = target: T1, human MOP receptor (Homo sapiens, UniProt P35372); assay: cAMP assay in CHO-MOP cells (agonism); format: cell-based
T1 construct: expressed in transfected cells; host or cells: CHO (CHO-MOP, G418 selection)

Sprague Dawley rats [1] = assay: Observation of physiological or behavioural toxicity after subcutaneous administration; conditions: for Physiological or behavioural toxicity: subcutaneous administration
human DOP receptor [2] = target: T2, human DOP receptor (Homo sapiens, UniProt P41143); assay: cAMP assay in CHO-DOP cells (agonism); format: cell-based; conditions: for Inhibition of forskolin-stimulated cAMP production: 100 µM ligand, CHO-DOP cells, reference DPDPE
T2 construct: expressed in transfected cells; host or cells: CHO (CHO-DOP, G418 selection)

rat hippocampus = test system: rat hippocampus; parameters: method as in earlier work; conditions: approximately five times lower dose; cited from earlier work
[3] = test system: untransfected Chinese hamster ovary (CHO-WT) cells; assay: cAMP assay: inhibition of forskolin-stimulated cAMP in untransfected CHO cells; format: cell-based; conditions: 100 µM ligand, 1 µM forskolin
human KOP receptor = target: T3, human KOP receptor (Homo sapiens, UniProt P41145); assay: cAMP assay in CHO-KOP cells (agonism); format: cell-based
T3 construct: expressed in transfected cells; host or cells: CHO (CHO-KOP, G418 selection)

human DOP receptor [4] = target: T2, human DOP receptor; assay: Antagonism of DPDPE effect in cAMP assay, CHO-DOP cells; format: cell-based
Protocol: The antagonist effect of UTA1003 was calculated as described in previous studies. […] (Figure 3E, Table 1).
For a direct comparison between the UTA ligands, standard compounds, and for the concentration-response curves, the pharmacological effect was calculated as % of inhibition of forskolin-induced cAMP production, and the values were used for statistical analysis.

Solubility (subjective) = format: physicochemical; conditions: detailed solubility experiments not performed
Sprague Dawley rats [5] = assay: Open-field motor behaviour
human NOP receptor = target: T4, human NOP receptor (Homo sapiens, UniProt P41146); assay: cAMP assay in CHO-NOP cells (agonism); format: cell-based
T4 construct: expressed in transfected cells; host or cells: CHO (CHO-NOP, G418 and hygromycin B selection)

Sprague Dawley rats [6] = assay: Hot plate antinociception assay; conditions: repeated s.c. twice daily treatment; days 2, 5 and 8
DOP receptor = conditions: cited from earlier work
NOP receptor = target: NOP receptor; parameters: method as in PMID 22194444; conditions: partial agonist; cited from earlier work
KOP receptor = target: KOP receptor; parameters: method as in PMID 22194444; conditions: partial agonist; cited from earlier work

T1 sequence (P35372 whole entry): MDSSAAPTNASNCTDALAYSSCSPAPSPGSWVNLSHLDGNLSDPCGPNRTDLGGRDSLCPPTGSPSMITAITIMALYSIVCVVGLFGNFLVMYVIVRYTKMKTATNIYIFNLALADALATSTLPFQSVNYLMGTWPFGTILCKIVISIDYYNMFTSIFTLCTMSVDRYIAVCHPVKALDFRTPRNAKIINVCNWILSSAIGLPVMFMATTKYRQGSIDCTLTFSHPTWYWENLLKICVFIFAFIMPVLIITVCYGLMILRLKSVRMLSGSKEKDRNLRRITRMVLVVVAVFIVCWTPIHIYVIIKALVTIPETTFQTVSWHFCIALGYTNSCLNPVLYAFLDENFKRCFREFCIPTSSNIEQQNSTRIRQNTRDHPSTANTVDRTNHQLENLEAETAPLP
T2 sequence (P41143 whole entry): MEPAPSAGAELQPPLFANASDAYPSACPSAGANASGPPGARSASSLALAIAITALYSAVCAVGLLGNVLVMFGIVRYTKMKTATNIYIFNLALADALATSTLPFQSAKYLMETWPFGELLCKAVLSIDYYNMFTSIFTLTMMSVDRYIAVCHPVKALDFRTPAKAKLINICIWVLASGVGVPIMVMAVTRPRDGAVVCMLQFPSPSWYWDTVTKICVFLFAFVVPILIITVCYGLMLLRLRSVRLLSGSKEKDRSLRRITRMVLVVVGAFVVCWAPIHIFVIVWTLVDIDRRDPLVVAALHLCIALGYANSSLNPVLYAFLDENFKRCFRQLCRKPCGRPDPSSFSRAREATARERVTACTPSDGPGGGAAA
T3 sequence (P41145 whole entry): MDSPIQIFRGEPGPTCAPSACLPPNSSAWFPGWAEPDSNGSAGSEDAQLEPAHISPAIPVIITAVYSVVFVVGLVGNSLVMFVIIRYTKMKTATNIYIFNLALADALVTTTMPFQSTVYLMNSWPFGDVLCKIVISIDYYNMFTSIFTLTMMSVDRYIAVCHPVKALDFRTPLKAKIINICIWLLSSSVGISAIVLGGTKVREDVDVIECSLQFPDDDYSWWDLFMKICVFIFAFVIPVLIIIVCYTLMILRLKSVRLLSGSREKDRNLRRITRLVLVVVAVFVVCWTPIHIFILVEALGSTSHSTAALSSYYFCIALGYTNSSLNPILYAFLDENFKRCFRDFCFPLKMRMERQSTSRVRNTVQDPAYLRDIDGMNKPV
T4 sequence (P41146 whole entry): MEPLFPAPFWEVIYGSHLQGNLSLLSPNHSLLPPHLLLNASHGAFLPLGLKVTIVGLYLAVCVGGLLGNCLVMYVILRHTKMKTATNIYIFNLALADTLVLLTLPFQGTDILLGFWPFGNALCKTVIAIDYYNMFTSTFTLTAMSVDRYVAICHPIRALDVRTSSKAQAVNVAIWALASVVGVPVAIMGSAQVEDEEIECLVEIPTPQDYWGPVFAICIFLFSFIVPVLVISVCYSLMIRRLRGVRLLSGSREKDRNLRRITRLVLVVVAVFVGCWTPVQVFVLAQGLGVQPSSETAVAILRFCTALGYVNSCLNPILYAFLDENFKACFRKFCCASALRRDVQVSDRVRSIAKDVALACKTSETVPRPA

With `C[C@@H](NC(=O)[C@@H](N)Cc1ccc(O)cc1)C(=O)NCC(=O)N(C)[C@@H](Cc1ccccc1)C(=O)NCCO` [DAMGO, reference compound] the Emax (human MOP receptor; CHO-MOP, inhibition of forskolin-stimulated cAMP, read-out: Emax (%)) was 88.8%.

In the case of `Cc1cc(O)cc(C)c1C[C@H](N)C(=O)N1CCCC[C@H]1C(=O)NCC(=O)NCc1ccccc1` [UTA1003] (H-[Dmt]-[Pip]-Gly-NHBn), the Itching (Sprague Dawley rats [1]; repeated dosing) is reported as “absent”, the “Physiological or behavioural toxicity” value (Sprague Dawley rats [1]) is reported as “did not observe any physiological or behavioural toxicity” and the Emax (human DOP receptor [2]) is reported as 28.2%. For the same molecule, the “Inhibition of forskolin-stimulated cAMP production” value (from here on “Inhibition”) (human DOP receptor [2]) was “significantly lower specificity than DPDPE”, the EC50 (human DOP receptor [2]; EC50, CHO-DOP, 1 µM forskolin) was 26.6 nM and the EC50 (human DOP receptor [2]; pEC50, CHO-DOP) was 26.3 nM. For the same molecule, the “Oxidative damage in the rat hippocampus” value (rat hippocampus) was “reduced oxidative damage in the rat hippocampus”, the “Inhibition” value [3] was “not observed” and the Emax (human KOP receptor) was 94.5%. It also gave an EC50 (human KOP receptor; EC50) of 30.9 nM, an EC50 (human KOP receptor; pEC50) of 30.9 nM and a Kb (human DOP receptor [4]; CHO-DOP, read-out: DOP receptor antagonism pKb (converted)) of 47.9 nM. It also gave a Kd (human DOP receptor [4]; read-out: Antagonist Effect (Kd)) of 47.8 nM, an Emax (human MOP receptor) of 82.4% and an EC50 (human MOP receptor; EC50, CHO-MOP, 1 µM forskolin) of 6.89 nM. The EC50 (human MOP receptor; pEC50, CHO-MOP) was 6.92 nM, the “Solubility compared to UFP-505” value (Solubility (subjective)) was “subjectively displayed better solubility” and the “Rearing time and rearing numbers, open field” value (Sprague Dawley rats [5]; acute s.c., 30 min post administration) was “slightly reduced rearing time and rearing numbers than vehicle”. The “Total rotational activities, open field” value (Sprague Dawley rats [5]; acute s.c., 120 min observation) was “remained unaffected”, the “Moving distance, open field” value (Sprague Dawley rats [5]; acute s.c., UTA1003 24.6 mg/kg) was “unaffected” and the “Moving time, open field” value (Sprague Dawley rats [5]; acute s.c., UTA1003 24.6 mg/kg, 30 min post administration) was “significantly reduced moving time compared to the vehicle group”. The “Motor behaviour after repeated treatment, open field” value (Sprague Dawley rats [5]; s.c. twice daily over 8 days, 30 min post administration) was “only a mild but significant suppression of motor activity on the first day”, the Emax (human NOP receptor) was 28.3% and the EC50 (human NOP receptor; EC50, CHO-NOP, 5 µM forskolin) was 1790 nM. It also gave an EC50 (human NOP receptor; pEC50, CHO-NOP) of 1780 nM.

With `CN1CC[C@]23c4c5ccc(O)c4O[C@H]2[C@@H](O)C=C[C@H]3[C@H]1C5` [morphine] the “Antinociception, morphine versus UTA1003/morphine at same day, hot plate” value (Sprague Dawley rats [6]) was “significantly lower than those of the UTA1003/morphine co-treatment on day 2”.

In the case of H-Dmt-Tic-Gly-NH-Bzl [UFP-505], the “Physiological or behavioural toxicity” value (Sprague Dawley rats [1]) is listed as “did not observe any physiological or behavioural toxicity”, the “Inhibition” value (human DOP receptor [2]) is listed as “significantly lower specificity than DPDPE” and the “DOP receptor antagonism pKb” value (DOP receptor; ref 37) is listed as 9.81. For the same molecule, the “DOP receptor antagonism pKb” value (DOP receptor; ref 60) was 10.50, the pKi (NOP receptor) was 5.86 and the “Inhibition” value [3] was “not observed”. For the same molecule, the pKi (KOP receptor) was 6.29.
